A short description of data set [1]: Preclinical oral studies in rats (bioavailability, portal blood, tolerability).
The nature of a further data set: Solubility in water. Format: physicochemical.
The nature of data set [2]: Duration of the aminosterol-induced response after a single oral dose. Format: in vivo, human. As to conditions: single 200 mg oral dose. The source says:
The invention is also based on the discovery of unexpected and unprecedented activity of orally or nasally administered squalamine and related aminosterols (e.g., aminosterol 1436). The activity relates to stimulating a sequence of events within the human GI tract with therapeutic value. With respect to this activity, the sequence of events stimulated by an aminosterol such as squalamine or aminosterol 1436 involves the induction of an intestinal secretory response followed by a period of “small intestinal quieting,” and the subsequent passage of a normally formed bowel movement. These events are best explained as a consequence of the stimulation of a heretofore unknown physiological gastrointestinal response, in this invention shown to be controlled or initiated by an effective oral dose of an aminosterol such as squalamine or the related aminosterol, 1436 (Aminosterol-Induced GI Response). The activity relates to stimulating the neural connections between the enteric nervous system and the brain with therapeutic value, which can thereby impact sleeping disorders, sleeping disturbances, or related symptoms, as described herein. With respect to this activity, the sequence of events stimulated by an aminosterol involves the entrainment of the circadian clock, the suprachiasmatic nucleus, and an improvement in the quality of sleep. […]

Data set [3] relates to single IPAN of the myenteric plexus. In words: IPAN electrophysiology, jejunum with luminal epithelium stripped. The settings on record: squalamine applied directly onto the myenteric plexus. On the set-up: species or system mouse. The method, then:
Intrinsic primary afferent neurons (IPANs) are believed to be normally stimulated indirectly, through release of neurotransmitters from the epithelium. Since squalamine can be readily transported across an intact intestinal epithelial layer, and can enter a neuron, altering the surface potential of its plasma membrane, an experiment was designed to determine whether the effects of squalamine on the IPAN required the presence of the luminal epithelium.
Jejunum was prepared as described in the previous experiment, except the luminal epithelium was manually stripped off the organ using forceps. Squalamine was applied directly onto the myenteric plexus from the luminal surface. Electrophysiological studies were repeated to monitor the activity of a single IPAN within the area of the release of compound. Within 5 seconds the IPAN began a series of spontaneous discharges (FIG. 13A). […] Squalamine appears to be capable of communicating directly with the ENS, in contrast to most substances that communicate with the ENS only indirectly, via their effects on the epithelium.

The subject of the next data set is isolated colons. In words: Isolated perfused colon, migrating muscular contractions (aged mouse; loperamide in young mouse). The text has this: Isolated colons were mounted in an apparatus that permits continuous perfusion through the lumen, and the monitoring of the velocity, frequency and pressure of migrating muscular contractions (MMCs). Similar to the experience in humans, aging in mice is associated with diminished colonic peristaltic activity.
In humans, opiates markedly diminish GI motility and suppress fluid secretion causing constipation. […] When loperamide is introduced into the lumen of a young mouse colonic peristalsis is inhibited. When squalamine is added in presence of continued loperamide perfusion, the dysmotility is overridden.

As to `CC(C)[C@@H](CC[C@@H](C)[C@H]1CC[C@H]2[C@@H]3[C@H](O)C[C@H]4C[C@@H](NCCCNCCCCN)CC[C@]4(C)[C@H]3CC[C@]12C)OS(=O)(=O)O` (single isomer, unassigned; ent-01) [ENT-01], the “absorption from the intestine” value in data set [1] (portal blood concentrations following oral dosing of radioactive ENT-01 to rats) was “low”. For the same molecule, the tolerability result in data set [1] (rats) is given as “well tolerated”. In addition, in data set [1] (rats, preclinical studies), the oral bioavailability result is recorded as “about 0.1%”. In addition, the solubility in water entry is recorded as “weakly soluble” in the data set “Solubility in water” (neutral pH) and “readily dissolves” in “Solubility in water” (pH<3.5 (the pH of gastric fluid)).
Turning to `CC(C)[C@@H](CC[C@@H](C)[C@H]1CC[C@H]2[C@@H]3[C@H](O)C[C@H]4C[C@@H](NCCCNCCCCN)CC[C@]4(C)[C@H]3CC[C@]12C)OS(=O)(=O)O` [squalamine], the “duration of the aminosterol-induced response” value in data set [2] was “about 4 days”. In data set [3], the “time to onset of spontaneous discharges of the IPAN” value is at most 5 s. In addition, in the data set with isolated colons (squalamine into the colonic lumen of the aged mouse), the colonic peristalsis entry is given as “dramatic stimulation of peristalsis”. Further, the “dysmotility caused by loperamide” value in the data set on isolated colons (young mouse colon, squalamine added in presence of continued loperamide perfusion) is reported as “overridden”.

For the origin of these results see patent US11083735B2, “Methods for treating sleep disorders, sleep disturbances, and related symptoms using aminosterol compositions” (Enterin, Inc., priority 2017, dated 2021).
